Measured values taken from patent publication US8715959B2, “Substitution mutant receptors and their use in a nuclear receptor-based inducible gene expression system” (priority 2001, dated 2014).
Residue numbers refer to the chain shown, from its start. Names and notes keep the numbering of the source.

Legend:
[1] = target: T1, wild-type CfEcR-A/BCDEF (Choristoneura fumiferana, UniProt O77240); assay: 3H-RH2485 competition ligand binding, wild-type CfEcR-A/BCDEF with CfUSP
T1 construct: "The full-length spruce budworm Choristoneura fumiferana EcR (“CfEcR-A/BCDEF”); b350 and b353 describe plain full-length EcR translated in vitro

[2] = target: A110P mutant CfEcR-A/BCDEF (Choristoneura fumiferana, UniProt O77255, A393P); assay: 3H-RH2485 competition ligand binding, A110P mutant CfEcR-A/BCDEF with CfUSP
Method: The ligand binding affinities of the A110P GAL4/CfEcR mutant were measured by binding ^3H-RH2485 and competing it with different concentrations of cold steroids or non-steroids. Briefly, 3H-RH2485 was bound to in vitro translated full-length CfEcR and bacterially expressed CfUSP and competed with increasing concentrations of cold steroidal or non-steroidal ligands. The reaction was carried out at room temperature for 1 hour followed by addition of activated dextran coated charcoal and centrifugation at 7000×g for 10 minutes at 4° C. The residual ^3H-RH2485 in the supernatant after centrifugation was measured using a scintillation counter. The fraction bound (f bound) values were determined and plotted against the concentration of ligand (in mM).

[3] = tested on: WT full-length EcR; assay: In vitro ligand binding assay with 3H-RH2485 and cold competitors, full-length WT EcR (FIG. 1); set-up: species or system Choristoneura fumiferana; settings: cold ligand as competitor
Method: (§1) Applicants tested the A110P mutant CfEcR receptor in a steroid and non-steroid ligand binding assay to confirm that steroid binding was eliminated. Briefly, PonA binding activity was determined using an in vitro ligand binding assay (LBA). Steroid ligand binding assay (LBA) was performed using ^3H-PonA (200 Ci/mmol). In vitro translated Gal4/wild-type or A110P mutant CfEcR-DEF and bacterial expressed GST-CfUSP-A/BCDEF were used in the assay. The assay was performed with 8 μL of Gal4/wild-type or A110P mutant CfEcR-DEF, 2.5 uL of GST-CfUSP-A/BCDEF, 1 μL of ^3H-PonA, and 2 μL of unlabeled (“cold”) PonA as competitor in the presence of T buffer [90 mM Tris pH 8.0, 10 μM DTT comprising Complete™ protease inhibitor cocktail used according to the manufacturer's instructions (Boehringer Mannheim)]. The reaction was carried out at room temperature for 1 hour followed by the addition of dextran-coated charcoal (Sigma). The mixture was centrifuged at 7000×g for 10 minutes the amount of ^3H-PonA in the supernatant was measured. The reactions were done in triplicate. The full-length WT EcR or its A110P mutant were also in vitro translated and transcribed using the TNT system (Promega) according to the manufacturer's instructions and tested in in vitro ligand binding assays using 3H-RH2485, with cold 20E or non-steroids (RH2485 and GS™-E) as competitors. In addition, 5 μL of the in vitro translations were assayed for translation efficiency using SDS-PAGE following standard methods (Maniatis, 1989). The ligand binding results for both the wild-type and A110P mutant CfEcR-DEF receptors were calculated and are shown in FIG. 1.

[4] = tested on: A110P mutant CfEcR; assay: In vitro ligand binding assay with 3H-RH2485 and cold competitors, full-length A110P mutant (FIG. 1); set-up: species or system Choristoneura fumiferana; settings: cold ligand as competitor of 3H-RH2485
Method: as §1

[5] = tested on: CfEcR-DEF; assay: GAL4/mutant CfEcR-DEF + VP16/LmUSP-EF GAL4-driven luciferase reporter transactivation in NIH3T3 cells; type: cell-based, Choristoneura fumiferana
[6] = tested on: CfEcR-A/BCDEF; assay: GAL4/full length CfEcR-A/BCDEF or A110P mutant, EcRE-driven luciferase reporter in NIH3T3 cells (FIG. 2); type: cell-based, Choristoneura fumiferana; settings: 40 hours
Text: To eliminate the possibility that the loss of steroid activity may be due to the truncated CfEcR-DEF receptor or an artifact of the GAL4 fusion protein, Applicants introduced the A110P mutation into the full length (FL) CfEcR (CfEcR-A/BCDEF), fused it to the GAL4 DNA binding domain as described in Example 1.4, and comparatively assayed it in NIH3T3 cells in 24-well plates as described in Example 2 above with full length wild type CfEcR (Example 1.3) in combination with VP16/LmUSP-EF and pFREcRE Luc that comprised the luciferase reporter gene operatively linked to six copies of the ecdysone response element (6×EcRE) and a synthetic TATAA. The transfected cells were grown in the presence of 0.25 or 10 μM PonA or GS™-E and the reporter activity was measured at 40 hours after adding ligand. The cells were harvested and the extracts were assayed for luciferase activity. The numbers on top of the bars indicate fold increase over DMSO levels.

[7] = tested on: CfEcR; assay: In vitro 3H-PonA ligand binding of CfEcR wild-type and A110 mutants (FIG. 5); set-up: species or system Choristoneura fumiferana; settings: in vitro translated receptor with GST-CfUSP-A/BCDEF
[8] = tested on: CfEcR-CDEF; settings: L57 cells, 40 hours, FIG. 3
Text: To determine whether the A110P mutant can respond to 20E, Applicants tested this A110P mutant-based gene expression system in an EcRE-driven reporter assay in insect L57 cells (a Drosophila melanogaster cell line that lacks EcR isoform B, the Drosophila melanogaster EcR isoform homolog of CfEcR isoform B from which the A110P mutant is derived, however L57 cells still contain EcR isoform A). The mutation was introduced into the VP16/CfEcR-CDEF fusion protein and operably linked to an baculovirus IE1 promoter and L57 cells were transfected with IE1VP16CfEcRCDEF (Example 1.5) or its A110P mutant version DNA (Example 1.6) along with a pMK43.2 β-galactosidase reporter gene under the control of 6× ecdysone response elements (“6×EcRE”; the pMK43.2 construct was obtained from Michael Koelle at Stanford University) in 24-well plates. Reporter activity for A110P mutant-based gene expression system transactivation was measured after 40 hours of treatment of the transfected cells with 0, 1, 10, 100, or 1000 nM 20E or GS™-E. The cells were harvested and the extracts were assayed for β-galactosidase (β-gal) and luciferase activity. β-Galactosidase was measured using Galacto-Star™ assay kit from TROPIX following the manufacturer's instructions.

[9] = tested on: CfEcR-DEF; assay: GAL4 fusions of A110 mutants of CfEcR-DEF, reporter transactivation in NIH3T3 cells (FIG. 4); type: cell-based, Choristoneura fumiferana; settings: 0.04-25 μM GS™-E or RH-125020, 48 hours
Method: Four mutations: A110S, A110P, A110L, and A110M were obtained. These four mutant and wild-type receptors were assayed in NIH3T3 cells.

Cc1cc(C)cc(C(=O)N(NC(=O)c2ccc3c(c2C)OCCO3)C(C)(C)C)c1 [RH-125020, N′-tert-butyl-N′-(3,5-dimethylbenzoyl)-3,4-(1,2-ethylenedioxy)-2-methylbenzohydrazide]
IC50 [1]: 0.0101 µM
IC50 [2]: 0.0257 µM

CC(C)(O)CC[C@@H](O)[C@](C)(O)[C@H]1CC[C@@]2(O)C3=CC(=O)[C@@H]4C[C@@H](O)[C@@H](O)C[C@]4(C)[C@H]3CC[C@]12C [Mutant 20E, 20-hydroxyecdysone]
competition with bound 3H-RH2485 (binding to WT full-length EcR) [3]: able to effectively compete
binding of ligand by the A110P mutant [4]: completely disrupted

CCc1ccc(C(=O)NN(C(=O)c2cc(C)cc(C)c2)C(C)(C)C)cc1 [RH-5992]
IC50 [1]: 0.133 µM
IC50 [2]: 0.322 µM

CCc1c(OC)cccc1C(=O)NN(C(=O)c1cc(C)cc(C)c1)C(C)(C)C [GS ™-E, N-(2-ethyl-3-methoxybenzoyl)-N′-(3,5-dimethylbenzoyl)-N′-tert-butylhydrazine]
IC50 [1]: 0.0853 µM
IC50 [2]: 0.0129 µM
competition with bound 3H-RH2485 (binding to WT full-length EcR) [3]: able to effectively compete
binding of ligand by the A110P mutant [4]: unaffected

CC(C)CC[C@@H](O)[C@](C)(O)[C@H]1CC[C@@]2(O)C3=CC(=O)[C@]4(O)C[C@@H](O)[C@@H](O)C[C@]4(C)[C@H]3[C@H](O)C[C@]12C [Muristerone A, muristeroneA]
IC50 [1]: 0.424 µM
IC50 [2]: > 1000 µM

CC(C)CC[C@@H](O)[C@](C)(O)[C@H]1CC[C@@]2(O)C3=CC(=O)[C@@H]4C[C@@H](O)[C@@H](O)C[C@]4(C)[C@H]3CC[C@]12C [Ponasterone A, ponasterone A]
IC50 [1]: 0.346 µM
IC50 [2]: > 1000 µM

COc1cccc(C(=O)NN(C(=O)c2cc(C)cc(C)c2)C(C)(C)C)c1C [RH-2485, N′-tert-butyl-N′-(3,5-dimethylbenzoyl)-3-methoxy-2-methylbenzohydrazide]
IC50 [1]: 1.8 µM
IC50 [2]: 0.35 µM
competition with bound 3H-RH2485 (binding to WT full-length EcR) [3]: able to effectively compete
binding of ligand by the A110P mutant [4]: unaffected

B1: A110P: CfEcR LBD substitution mutant, Alanine (A) to Proline (P); also made in CfEcR-A/BCDEF and CfEcR-CDEF (protein, listed as Choristoneura fumiferana)
chain: LTANQQFLIARLIWYQDGYEQPSDEDLKRITQTWQQADDENEESDTPFRQITEMTILTVQLIVEFAKGLPGFAKISQPDQITLLKACSSEVMMLRVARRYDAASDSVLFPNNQAYTRDNYRKAGMAYVIEDLLHFCRCMYSMALDNIHYALLTAVVIFSDRPGLEQPQLVEEIQRYYLNTLRIYILNQLSGSARSSVIYGKILSILSELRTLGMQNSNMCISLKLKNRKLPPFLEEIWDV
Fold increase over WT, 2.5 μM GS™-E ([5]; 2.5 μM GS™-E non-steroidal ligand, NIH3T3 cells, relative to Gal4/wild-type CfEcR-DEF switch activity): 0.8 fold
Fold increase over WT, 2.5 μM PonA ([5]; 2.5 μM PonA steroidal ligand, NIH3T3 cells, relative to Gal4/wild-type CfEcR-DEF switch activity): 0.005 fold
non-steroid activity (summary of Table 10) ([5]; GS™-E, CfEcR-DEF point mutants): not significantly affected
steroid binding activity (summary of Table 10) ([5]; PonA, CfEcR-DEF point mutants): essentially eliminated
non-steroid activity of full length receptor versus full length WT CfEcR ([6]; 0.25 or 10 μM GS™-E): no significant difference
PonA activity of full length receptor ([6]; 0.25 or 10 μM PonA): completely lost
PonA binding, of wild-type receptor binding [7]: undetectable
reporter gene activity in the presence of 20E ([8]; 1-1000 nM 20E): slightly increased reporter gene activity
reporter gene expression in the presence of GS™-E ([8]; 1-1000 nM GS™-E): transactivated reporter gene expression

B2: A110M: CfEcR-DEF LBD substitution mutant, Alanine (A) to Methionine (M) (protein, listed as Choristoneura fumiferana)
chain: B1 chain with P110M
non-steroid reporter activity compared to wild-type receptor [9]: lower sensitivity and no detectable transactivation at the two lowest concentrations

B3: A110L: CfEcR-DEF LBD substitution mutant, Alanine (A) to Leucine (L) (protein, listed as Choristoneura fumiferana)
chain: B1 chain with P110L
non-steroid reporter activity compared to wild-type receptor [9]: lower sensitivity and no detectable transactivation at the two lowest concentrations

B4: A110S: CfEcR-DEF LBD substitution mutant, Alanine (A) to Serine (S) (protein, listed as Choristoneura fumiferana)
chain: B1 chain with P110S
non-steroid reporter activity compared to wild-type receptor [9]: lower sensitivity and no detectable transactivation at the two lowest concentrations
